# Assay results taken from patent US20180000085A1, “USE OF PICOLINAMIDE COMPOUNDS WITH FUNGICIDAL ACTIVITY” (DOW AGROSCIENCES LLC, priority 2014, published 2018).
# Tests used:
# [1] = test system: Zymoseptoria tritici; test: Leaf blotch of wheat (SEPTTR) disease control on wheat seedlings; type: in vivo; design: key to SEPTTR 1DP, HV activity at 100 ppm (% control rating) / SEPTTR 3DC, HV activity at 100 ppm (% control rating) / SEPTTR disease control, 1DP / SEPTTR disease control, 3DC / SEPTTR 1DP disease control rating, HV activity / SEPTTR 3DC disease control rating, HV activity / SEPTTR 3DC, LV activity at 125.1 g/H (% Control rating) / SEPTTR 1DP, LV activity at 125.1 g/H (% Control rating) / SEPTTR 1DP disease control rating, LV activity at 125.1 g/H / SEPTTR 3DC disease control rating, LV activity at 125.1 g/H / SEPTTR 3DC disease control rating, HV activity at 100 ppm / SEPTTR 1DP disease control rating, HV activity at 100 ppm / HV activity at 100 ppm SEPTTR 3DC (disease control rating) / HV activity at 100 ppm SEPTTR 1DP (disease control rating) / LV activity at 125.1 g/H SEPTTR 1DP (disease control rating) / LV activity at 125.1 g/H SEPTTR 3DC (disease control rating): A: > 80; B: ≤ 80; C: Not Tested; D: No Activity Observed in the Reported Assay; details: low volume application, 125.1 g/H, wheat leaf blotch; for LV activity at 125.1 g/H SEPTTR 1DP (disease control rating): 1 Day Protectant; for LV activity at 125.1 g/H SEPTTR 3DC (disease control rating): 3 Day Curative
# [2] = test system: Puccinia triticina; test: Wheat brown rust (PUCCRT) disease control on wheat seedlings; type: in vivo; design: key to PUCCRT 3DC, HV activity at 100 ppm (% control rating) / PUCCRT disease control, 3DC / PUCCRT 1DP disease control rating, HV activity / PUCCRT 3DC disease control rating, HV activity / PUCCRT 3DC, LV activity at 125.1 g/H (% Control rating) / PUCCRT 1DP, LV activity at 125.1 g/H (% Control rating) / PUCCRT 3DC disease control rating, LV activity at 125.1 g/H / PUCCRT 1DP disease control rating, LV activity at 125.1 g/H / PUCCRT 3DC disease control rating, HV activity at 100 ppm / PUCCRT 1DP disease control rating, HV activity at 100 ppm / HV activity at 100 ppm PUCCRT 3DC (disease control rating) / LV activity at 125.1 g/H PUCCRT 1DP (disease control rating) / LV activity at 125.1 g/H PUCCRT 3DC (disease control rating): A: > 80; B: ≤ 80; C: Not Tested; D: No Activity Observed in the Reported Assay; details: low volume application, 125.1 g/H, wheat brown rust; for LV activity at 125.1 g/H PUCCRT 1DP (disease control rating): 1 Day Protectant; for LV activity at 125.1 g/H PUCCRT 3DC (disease control rating): 3 Day Curative
SMILES,LV activity at 125.1 g/H SEPTTR 1DP (disease control rating) [1],LV activity at 125.1 g/H SEPTTR 3DC (disease control rating) [1],LV activity at 125.1 g/H PUCCRT 1DP (disease control rating) [2],LV activity at 125.1 g/H PUCCRT 3DC (disease control rating) [2]
COc1ccnc(C(=O)N[C@@H](C)C(=O)O[C@@H](C)[C@H](OCC2CC2)C(C)(C)C)c1OC(C)=O [Cmpd 1071],B (≤ 80),B (≤ 80),A (> 80),A (> 80)
C=CC[C@@H](OCC(=C)C)[C@H](C)OC(=O)[C@H](C)NC(=O)c1nccc(OC)c1OC(C)=O [Cmpd 1074],D,D,D,B (≤ 80)
C=CC[C@@H](Oc1ccc(F)cc1F)[C@H](C)OC(=O)[C@H](C)NC(=O)c1nccc(OC)c1OCOC(C)=O [Cmpd 1075],D,B (≤ 80),A (> 80),B (≤ 80)
C=CC[C@@H](OCC1CC1)[C@H](C)OC(=O)[C@H](C)NC(=O)c1nccc(OC)c1OCOC(C)=O [Cmpd 1076],D,D,B (≤ 80),B (≤ 80)
C=CC[C@@H](Oc1ccc(C(F)(F)F)cc1)[C@H](C)OC(=O)[C@H](C)NC(=O)c1nccc(OC)c1OCOC(C)=O [Cmpd 1077],B (≤ 80),D,A (> 80),B (≤ 80)
C=CC[C@@H](Oc1cc(F)cc(Cl)c1)[C@H](C)OC(=O)[C@H](C)NC(=O)c1nccc(OC)c1OCOC(C)=O [Cmpd 1078],B (≤ 80),B (≤ 80),A (> 80),A (> 80)
C=CC[C@@H](Oc1cccc(Cl)c1)[C@H](C)OC(=O)[C@H](C)NC(=O)c1nccc(OC)c1OC(C)=O [Cmpd 1079],B (≤ 80),B (≤ 80),A (> 80),A (> 80)
C=CC[C@@H](Oc1cc(F)cc(Cl)c1)[C@H](C)OC(=O)[C@H](C)NC(=O)c1nccc(OC)c1OC(C)=O [Cmpd 1080],B (≤ 80),B (≤ 80),A (> 80),B (≤ 80)
C=CC[C@@H](Oc1ccc(F)cc1F)[C@H](C)OC(=O)[C@H](C)NC(=O)c1nccc(OC)c1OC(C)=O [Cmpd 1081],D,D,A (> 80),B (≤ 80)
C=CC[C@@H](OCC(=C)C)[C@H](C)OC(=O)[C@H](C)NC(=O)c1nccc(OC)c1OCOC(C)=O [Cmpd 1082],D,D,B (≤ 80),A (> 80)
C=CC[C@@H](Oc1cccc(Cl)c1)[C@H](C)OC(=O)[C@H](C)NC(=O)c1nccc(OC)c1OCOC(C)=O [Cmpd 1083],B (≤ 80),A (> 80),A (> 80),A (> 80)
C=CC[C@@H](Oc1ccc(C(F)(F)F)cc1)[C@H](C)OC(=O)[C@H](C)NC(=O)c1nccc(OC)c1OC(C)=O [Cmpd 1084],B (≤ 80),B (≤ 80),B (≤ 80),D
C=CC[C@@H](OCC1CC1)[C@H](C)OC(=O)[C@H](C)NC(=O)c1nccc(OC)c1OC(C)=O [Cmpd 1085],D,D,D,B (≤ 80)
CC(=O)OCOc1c(Br)ccnc1C(=O)N[C@@H](C)C(=O)O[C@@H](C)[C@H](Oc1ccccc1)C(C)C [Cmpd 1086],D,D,B (≤ 80),D
COc1ccnc(C(=O)NC(C)C(=O)OC(C(C)C)C(Oc2ccccc2)C(C)C)c1OCOC(C)=O (stereo not shown) [Cmpd 1088],D,D,B (≤ 80),D
COCC(OC(=O)C(C)NC(=O)c1nccc(OC)c1OCOC(C)=O)C(Oc1ccccc1)C(C)C (stereo not shown) [Cmpd 1090],D,D,D,B (≤ 80)
C=CC(OC(=O)C(C)NC(=O)c1nccc(OC)c1OCOC(C)=O)C(Oc1ccccc1)C(C)C (stereo not shown) [Cmpd 1092],D,D,B (≤ 80),B (≤ 80)
CCCC(OC(=O)C(C)NC(=O)c1nccc(OC)c1OCOC(C)=O)C(Oc1ccccc1)C(C)C (stereo not shown) [Cmpd 1093],D,D,D,D
COc1ccnc(C(=O)NC(C)C(=O)OC(C(C)C)C(Oc2ccccc2)C(C)C)c1OCOC(C)=O (stereo not shown) [Cmpd 1094],D,D,D,D
COCC(OC(=O)C(C)NC(=O)c1nccc(OC)c1OCOC(C)=O)C(Oc1ccccc1)C(C)C (stereo not shown) [Cmpd 1095],D,D,B (≤ 80),B (≤ 80)
CCCC(OC(=O)C(C)NC(=O)c1nccc(OC)c1OCOC(C)=O)C(Oc1ccccc1)C(C)C (stereo not shown) [Cmpd 1096],D,B (≤ 80),D,D
CCOc1ccnc(C(=O)NC(C)C(=O)OC(C)C(CC(C)C)Oc2ccc(C)cc2Cl)c1OC(C)=O (stereo not shown) [Cmpd 1098],D,D,D,B (≤ 80)
COc1ccnc(C(=O)NC(C)C(=O)OC(C)C(CC(C)C)Oc2ccc3ccccc3c2)c1OC(C)=O (stereo not shown) [Cmpd 1099],B (≤ 80),D,A (> 80),A (> 80)
COCCC(=O)Oc1c(OC)ccnc1C(=O)NC(C)C(=O)OC(C)C(CC(C)C)Oc1ccccc1 (stereo not shown) [Cmpd 1100],A (> 80),A (> 80),A (> 80),A (> 80)
CCOc1ccnc(C(=O)N[C@@H](C)C(=O)O[C@@H](C)[C@@H](CC(C)C)Oc2cccc(F)c2)c1OC(C)=O [Cmpd 1107],D,D,B (≤ 80),B (≤ 80)
